Measured values as given in US9434763B2, “Derivatives of pyridinone as inhibitors for tissue transglutaminase” (ZEDIRA GMBH, priority 2012, dated 2016).
pIC50: −log10 of the molar value.

What was measured:
Format in all cases: biochemical
[1] = molecular target: T1, tissue transglutaminase (TG2) (Homo sapiens, UniProt P21980); test: Comparative transglutaminase selectivity assay with casein and dansylcadaverine as substrates (kit T036): TG2; conditions: casein as substrate (apparent IC50)
T1 construct: purchased Zedira T036 (kit)
T1 sequence (P21980 1-687): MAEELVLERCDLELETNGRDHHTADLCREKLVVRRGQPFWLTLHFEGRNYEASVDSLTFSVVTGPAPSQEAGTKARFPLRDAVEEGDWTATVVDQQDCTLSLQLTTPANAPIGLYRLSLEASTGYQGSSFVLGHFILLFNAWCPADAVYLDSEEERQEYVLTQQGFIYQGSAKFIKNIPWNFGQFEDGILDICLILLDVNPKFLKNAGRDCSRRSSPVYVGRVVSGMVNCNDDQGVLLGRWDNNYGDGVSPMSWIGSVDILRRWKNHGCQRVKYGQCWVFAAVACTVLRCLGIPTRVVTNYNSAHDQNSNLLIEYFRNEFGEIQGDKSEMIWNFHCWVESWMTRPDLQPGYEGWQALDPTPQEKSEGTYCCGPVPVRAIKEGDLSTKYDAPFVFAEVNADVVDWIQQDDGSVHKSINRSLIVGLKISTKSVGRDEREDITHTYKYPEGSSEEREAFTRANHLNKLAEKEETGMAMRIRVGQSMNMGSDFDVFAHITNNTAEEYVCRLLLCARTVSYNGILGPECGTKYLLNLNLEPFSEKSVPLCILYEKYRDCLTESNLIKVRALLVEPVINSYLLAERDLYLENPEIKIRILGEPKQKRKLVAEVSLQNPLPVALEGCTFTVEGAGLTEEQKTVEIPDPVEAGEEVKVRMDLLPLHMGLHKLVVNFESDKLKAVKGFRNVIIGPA
Text: (§1) The comparative determination of different transglutaminases to determine the selectivity was made with casein and dansylcadaverine as substrates. Therefore, the kit T036 (Zedira, Darmstadt; Refs: Lorand et al, Anal Biochem, 1971, 44:221-31) as well as transglutaminase products T009 (transglutaminase 1), T012 (transglutaminase 3), T021 (transglutaminase 6) and T027 (plasma transglutaminase, factor XIII) are used. Therefore, two different IC50 values for the compounds are given.
(§2) The evaluation of the resulting enzyme activity is done using the slope of the straight line obtained by the increase in fluorescence.
(§3) To determine the non-inhibited enzyme activity, DMSO instead of inhibitor stock solution is used. IC50 values are determined by plotting the resulting enzyme activity against the logarithm of the inhibitor concentration. IC50 is defined as the concentration of inhibitor resulting in 50% of enzyme activity.
(§4) It should be noted that it was measured here against casein as substrate, which is why other apparent inhibition values (IC50 value) result.

TG6 (transglutaminase 6) = molecular target: T2, TG6 (transglutaminase 6) (Homo sapiens, UniProt O95932); test: Comparative transglutaminase selectivity assay with casein and dansylcadaverine as substrates: TG6; conditions: casein as substrate
T2 construct: purchased Zedira T021
T2 sequence (O95932 1-706): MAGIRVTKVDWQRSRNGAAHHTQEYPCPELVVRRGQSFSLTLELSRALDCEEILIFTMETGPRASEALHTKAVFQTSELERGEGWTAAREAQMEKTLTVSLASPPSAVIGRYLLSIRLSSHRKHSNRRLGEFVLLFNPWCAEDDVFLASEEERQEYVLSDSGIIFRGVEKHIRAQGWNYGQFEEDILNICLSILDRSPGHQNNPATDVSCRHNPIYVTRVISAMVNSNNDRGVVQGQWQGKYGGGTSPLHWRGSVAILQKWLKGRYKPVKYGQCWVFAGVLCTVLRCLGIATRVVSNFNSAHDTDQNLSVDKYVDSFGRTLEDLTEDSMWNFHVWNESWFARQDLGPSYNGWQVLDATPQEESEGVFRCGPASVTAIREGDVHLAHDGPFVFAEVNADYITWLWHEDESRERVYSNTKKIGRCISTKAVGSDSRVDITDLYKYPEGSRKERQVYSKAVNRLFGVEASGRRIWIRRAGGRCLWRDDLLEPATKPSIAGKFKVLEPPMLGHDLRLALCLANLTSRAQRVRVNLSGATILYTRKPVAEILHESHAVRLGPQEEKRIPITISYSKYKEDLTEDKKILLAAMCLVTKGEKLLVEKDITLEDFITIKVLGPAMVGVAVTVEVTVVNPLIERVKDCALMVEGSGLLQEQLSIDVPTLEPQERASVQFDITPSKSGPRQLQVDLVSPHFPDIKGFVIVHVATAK
Text: as §1, §2, §3, §4

TG3 (transglutaminase 3) = molecular target: T3, TG3 (transglutaminase 3) (Homo sapiens, UniProt Q08188); test: Comparative transglutaminase selectivity assay with casein and dansylcadaverine as substrates: TG3; conditions: casein as substrate
T3 construct: purchased Zedira T012
T3 sequence (Q08188 1-693): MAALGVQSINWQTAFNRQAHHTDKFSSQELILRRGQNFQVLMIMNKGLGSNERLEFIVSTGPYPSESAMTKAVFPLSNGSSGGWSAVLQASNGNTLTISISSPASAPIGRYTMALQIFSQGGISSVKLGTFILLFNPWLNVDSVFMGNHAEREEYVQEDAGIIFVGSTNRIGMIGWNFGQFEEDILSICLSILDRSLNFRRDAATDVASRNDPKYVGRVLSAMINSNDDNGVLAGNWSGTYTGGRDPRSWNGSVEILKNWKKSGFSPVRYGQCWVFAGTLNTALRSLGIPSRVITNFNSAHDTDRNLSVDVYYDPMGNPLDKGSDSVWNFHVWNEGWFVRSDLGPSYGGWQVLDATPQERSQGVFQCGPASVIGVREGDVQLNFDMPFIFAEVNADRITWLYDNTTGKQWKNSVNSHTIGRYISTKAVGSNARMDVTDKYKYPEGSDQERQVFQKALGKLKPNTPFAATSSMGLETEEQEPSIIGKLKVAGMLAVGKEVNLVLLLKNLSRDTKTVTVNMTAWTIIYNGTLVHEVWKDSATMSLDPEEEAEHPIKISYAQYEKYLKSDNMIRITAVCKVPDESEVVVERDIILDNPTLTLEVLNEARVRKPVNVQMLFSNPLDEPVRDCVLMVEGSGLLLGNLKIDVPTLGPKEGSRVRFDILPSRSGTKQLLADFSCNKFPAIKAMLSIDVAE
Text: as §1, §2, §3, §4

Compound | pIC50 [1] | pIC50 (TG6 (transglutaminase 6)) | pIC50 (TG3 (transglutaminase 3))
CC[C@@H](C)[C@H](NC(=O)Cn1cccc(NC(=O)[C@H](CC/C=C/C(=O)OC)NC(=O)c2ccccc2)c1=O)C(=O)O [A61, (2S,3R)-2-(2-(3-((S,E)-2-benzamido-7-methoxy-7-oxohept-5-enamido)-2-oxopyridin-1(2H)-yl)acetamido)-3-methylpentanoic acid] | 7.10 | 5.37 | 4.75
CCC(CC)CNC(=O)Cn1cccc(NC(=O)[C@H](CC/C=C/C(=O)OC)NC(=O)c2cncn2C)c1=O [A63, (S,E)-Methyl 7-(1-(2-(2-ethylbutylamino)-2-oxoethyl)-2-oxo-1,2-dihydropyridin-3-ylamino)-6-(1-methyl-1H-imidazole-5-carboxamido)-7-oxohept-2-enoate] | 6.66 | 4.50 | 4.13
CCOC(=O)/C=C/CC[C@H](NC(=O)CCC(=O)O)C(=O)Nc1cccn(CC(=O)NCC(CC)CC)c1=O [A30, (S,E)-4-(7-Ethoxy-1-(1-(2-(2-ethylbutylamino)-2-oxoethyl)-2-oxo-1,2-dihydropyridin-3-ylamino)-1,7-dioxohept-5-en-2-ylamino)-4-oxobutanoic acid] | 5.49 | 4.48 | 4.16
COC(=O)/C=C/CC[C@H](NC(C)=O)C(=O)Nc1cccn(CC(=O)N2CCCC(C)C2)c1=O (stereo partly drawn) [A64, (6S,E)-Methyl 6-acetamido-7-(1-(2-(3-methylpipendin-1-yl)-2-oxoethyl)-2-oxo-1,2-dihydropyridin-3-ylamino)-7-oxohept-2-enoate] | 5.52 | 3.96 | 3.90
CCOC(=O)/C=C/CC[C@H](NC(=O)c1ccccc1)C(=O)Nc1cccn(CC(=O)N[C@H](C(=O)O)[C@H](C)CC)c1=O [A59, (2S,3R)-2-(2-(3-((S,E)-2-Benzamido-7-ethoxy-7-oxohept-5-enamido)-2-oxopyridin-1(2H)-yl)acetamido)-3-methylpentanoic acid] | 6.34 | 5.03 | 4.39
CC[C@@H](C)[C@H](NC(=O)Cn1cccc(NC(=O)[C@H](CC/C=C/C(=O)OC)NC(=O)c2cncn2C)c1=O)C(=O)O [A60, (2S,3R)-2-(2-(3-((S,E)-7-Methoxy-2-(1-methyl-1H-imidazole-5-carboxamido)-7-oxohept-5-enamido)-2-oxopyridin-1(2H)-yl)acetamido)-3-methylpentanoic acid] | 6.95 | 4.94 | 4.37
CCOC(=O)/C=C/CC[C@H](NC(=O)CCC(=O)O)C(=O)Nc1cccn(CC(=O)NCCC(C)C)c1=O [A24, (S,E)-4-(7-Ethoxy-1-(1-(2-(isopentylamino)-2-oxoethyl)-2-oxo-1,2-dihydropyridin-3-ylamino)-1,7-dioxohept-5-en-2-ylamino)-4-oxobutanoic acid] | 5.12 | 4.41 | 3.92
